Measured values as given in ChEMBL document CHEMBL1201862, “PubChem BioAssay data set” (2004).
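In this assay, cells in 96-well plates receive the compound at five concentrations for 48 hours. Endpoints are linearly interpolated between the surrounding concentrations. GI50: concentration for 50% inhibition of growth.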 Calls of active or inactive are those of the source. No stated cut-off is given here; in the data, active = GI50 up to about 1.1 µM and inactive = higher.

Columns and labels:
Experiment in all cases: NCI anticancer screen, dose series, 48 h
[1] = system: HT-29
[2] = system: SF-268
[3] = system: SNB-19
[4] = system: SN12C
[5] = system: TK-10
[6] = system: HL-60
[7] = system: RXF 393
[8] = system: HOP-62
[9] = system: SK-MEL-28
[10] = system: SR
[11] = system: OVCAR-8
[12] = system: SK-MEL-5
[13] = system: ACHN
[14] = system: A549
[15] = system: EKVX
[16] = system: UACC-62
[17] = system: MDA-MB-231
[18] = system: PC-3
[19] = system: T47D

Measured: GI50

COc1ccc(NC(=O)CC/C(CC(=O)c2ccco2)=N/Nc2ccc([N+](=O)[O-])cc2[N+](=O)[O-])cc1
inactive: [1] 48 µM | [2] 64 µM | [3] > 100 µM | [4] > 100 µM | [5] > 100 µM | [6] 30.1 µM | [7] 75.9 µM | [8] > 100 µM | [9] > 100 µM | [10] 26.7 µM | [11] > 100 µM | [12] 48.4 µM | [13] > 100 µM | [14] > 100 µM | [15] > 100 µM | [16] 34.4 µM

COc1cc(O)c2c(c1)OCC(Cc1ccc(O)cc1)C2=O (centres undefined)
inactive: [1] > 100 µM | [2] 80.5 µM | [3] > 100 µM | [4] > 100 µM | [5] > 100 µM | [17] > 100 µM | [6] > 100 µM | [7] 21.1 µM | [8] > 100 µM | [9] > 100 µM | [10] 55.8 µM | [11] > 100 µM | [12] 44.4 µM | [13] > 100 µM | [18] > 100 µM | [14] > 100 µM | [19] 45.4 µM | [16] > 100 µM

Cc1nc(O)nc(N(CCO)/N=C/c2ccc(Cl)cc2)c1C(=O)Nc1ccc(Cl)cc1
inactive: [1] > 100 µM | [2] 89.7 µM | [3] 83.9 µM | [4] > 100 µM | [5] 85.3 µM | [17] 36.7 µM | [6] > 100 µM | [7] 24.7 µM | [8] 59.7 µM | [9] > 100 µM | [11] 99.5 µM | [12] > 100 µM | [13] > 100 µM | [18] > 100 µM | [14] > 100 µM | [15] > 100 µM | [19] 98.4 µM | [16] > 100 µM

NC(=O)Nc1c([N+](=O)[O-])cc(C(F)(F)F)cc1[N+](=O)[O-]
inactive: [1] 33.7 µM | [2] > 100 µM | [3] > 100 µM | [4] > 100 µM | [5] > 100 µM | [6] 33.7 µM | [7] > 100 µM | [8] > 100 µM | [9] > 100 µM | [10] > 100 µM | [11] 57.5 µM | [12] 49.3 µM | [13] > 100 µM | [14] > 100 µM | [15] > 100 µM | [16] 19.4 µM

CC1(C)CCC(Sc2ccccc2)O1 (centres undefined)
inactive: [2] > 100 µM | [3] > 100 µM | [4] > 100 µM | [5] > 100 µM | [6] > 100 µM | [7] > 100 µM | [8] > 100 µM | [9] > 100 µM | [10] > 100 µM | [11] > 100 µM | [12] > 100 µM | [13] > 100 µM | [14] > 100 µM | [15] > 100 µM | [16] > 100 µM

COCCCCCC(=O)CP(=O)(OC)OC
inactive: [1] > 100 µM | [2] > 100 µM | [3] > 100 µM | [4] > 100 µM | [5] > 100 µM | [6] 86.3 µM | [7] > 100 µM | [8] > 100 µM | [9] > 100 µM | [10] 52 µM | [11] > 100 µM | [12] > 100 µM | [13] > 100 µM | [14] > 100 µM | [15] > 100 µM | [16] > 100 µM

Fc1sc2c(c1F)C1CCC2C1 (centres undefined)
inactive: [1] 68.9 µM | [2] > 100 µM | [3] > 100 µM | [4] > 100 µM | [5] > 100 µM | [17] 83.2 µM | [7] 88.1 µM | [8] > 100 µM | [9] > 100 µM | [11] > 100 µM | [12] > 100 µM | [13] > 100 µM | [18] 75.7 µM | [14] > 100 µM | [15] > 100 µM | [19] 88.3 µM | [16] 51.8 µM

O=C(CCc1nnc2s/c(=C\c3ccccc3)c(=O)n12)Nc1cc(Cl)ccc1Cl
inactive: [1] > 100 µM | [2] > 100 µM | [3] > 100 µM | [4] > 100 µM | [5] > 100 µM | [6] > 100 µM | [7] > 100 µM | [8] > 100 µM | [9] > 100 µM | [10] > 100 µM | [11] > 100 µM | [12] > 100 µM | [13] > 100 µM | [14] > 100 µM | [15] > 100 µM | [16] > 100 µM

C/C=C1/C=CC2c3[nH]c4ccccc4c3CCN2C1 (centres undefined)
inactive: [1] > 400 µM | [2] > 400 µM | [3] 187 µM | [4] > 400 µM | [5] > 400 µM | [6] > 400 µM | [7] > 400 µM | [8] > 400 µM | [9] > 400 µM | [10] 331 µM | [11] > 400 µM | [12] 138 µM | [13] > 400 µM | [14] > 400 µM | [15] > 400 µM | [16] > 400 µM

Cn1c(=O)c(C(c2ccc([N+](=O)[O-])cc2)c2c(O)c3ccccc3n(C)c2=O)cc2ccccc21 (centres undefined)
inactive: [1] 44.8 µM | [2] 53.1 µM | [3] 40.3 µM | [4] 57.7 µM | [5] 29.9 µM | [6] 36.1 µM | [7] 26.4 µM | [8] 27.7 µM | [9] 48.1 µM | [10] 39.4 µM | [11] > 100 µM | [12] 51.3 µM | [13] 57.8 µM | [14] 93.5 µM | [15] 41.7 µM | [16] 19.2 µM

COC(=O)[C@@H]1C(=O)O[C@@H](c2ccc3c(c2)OCO3)[C@@H]1C(=O)OC.COC(=O)[C@H]1C(=O)O[C@@H](c2ccc3c(c2)OCO3)[C@@H]1C(=O)OC
inactive: [1] > 100 µM | [2] > 100 µM | [3] > 100 µM | [4] > 100 µM | [5] > 100 µM | [6] > 100 µM | [7] > 100 µM | [8] > 100 µM | [9] > 100 µM | [10] > 100 µM | [11] > 100 µM | [12] > 100 µM | [13] > 100 µM | [14] > 100 µM | [15] > 100 µM | [16] > 100 µM

Cn1c(=O)c2nc[nH]c2n(C)c1=O [THEOPHYLLINE]
inactive: [4] > 100 µM | [5] > 100 µM | [17] > 100 µM | [6] > 100 µM | [8] > 100 µM | [9] > 100 µM | [10] > 100 µM | [11] > 100 µM | [12] > 100 µM | [13] > 100 µM | [18] > 100 µM | [14] > 100 µM | [15] > 100 µM | [19] > 100 µM
